Literature values as cited in publication PMC7765247 (Bioorganic & medicinal chemistry letters, 2020).

System: PC-3 cells
Conditions: anoxia (< 10 ppm oxygen in gas phase); ref Patterson el. al.

CS(=O)(=O)OCCN(CCBr)c1c(C(=O)NCCO)cc([N+](=O)[O-])cc1[N+](=O)[O-] [Compound 16, PR-104A]
hypoxia-selectivity ratio in PC-3 cells: approximately 15
